Results on twelve compounds are retold here after paper PMC6017705, “Discovery of N-(Naphtho[1,2-b]Furan-5-Yl) Benzenesulfonamides as Novel Selective Inhibitors of Triple-Negative Breast Cancer (TNBC)” (Molecules : A Journal of Synthetic Chemistry and Natural …, 2018).

The subject of one assay is MDA-MB-231. In words: Cell viability assay (CCK-8), MDA-MB-231. The class given is cell-based, human. The conditions noted are these: for IC50: TNBC cell line, CCK-8, 72 h, 0.156 to 40 μM; for inhibition at 5 µg/mL: MDA-MB-231. On the procedure: (§1) Four human TNBC cell lines (MDA-MB-231, MDA-MB-453, SUM-159, and BT-20), a non-TNBC breast cancer cell line (MCF-7) and a normal mammary epithelial cell line (MCF-10A) were cultured with DMEM (phenol free) supplemented with 2.5% CS-FBS and 1% L-Glu. 1.2 × 10^3 of cells were seeded into 384-well microplates and maintained for 24 h in an incubator at 37 °C in a 5% CO2, saturated humidified atmosphere. […] […] Then CCK-8 solution was added into cells and incubated for another 4 h. Absorbance was measured with a Microplate Reader at 450/600 nm. The IC50 values of the compounds on TNBC cell lines were derived using GraphPad Prism 5.0 (GraphPad Software, Inc., La Jolla, CA, USA).

The next assay concerns MDA-MB-453. In words: Cell viability assay (CCK-8), MDA-MB-453. The assay is classed as cell-based. The conditions noted are these: Homo sapiens, TNBC cell line, CCK-8, 72 h, 0.156 to 40 μM. On the procedure: (§2) Four human TNBC cell lines (MDA-MB-231, MDA-MB-453, SUM-159, and BT-20), a non-TNBC breast cancer cell line (MCF-7) and a normal mammary epithelial cell line (MCF-10A) were cultured with DMEM (phenol free) supplemented with 2.5% CS-FBS and 1% L-Glu. 1.2 × 10^3 of cells were seeded into 384-well microplates and maintained for 24 h in an incubator at 37 °C in a 5% CO2, saturated humidified atmosphere. Different compounds were added into cells with 9 concentrations from 0.156 to 40 μM for 72 h. […] Then CCK-8 solution was added into cells and incubated for another 4 h. Absorbance was measured with a Microplate Reader at 450/600 nm. The IC50 values of the compounds on TNBC cell lines were derived using GraphPad Prism 5.0 (GraphPad Software, Inc., La Jolla, CA, USA).

Another assay has as its system SUM-159. In words: Cell viability assay (CCK-8), SUM-159. The assay is classed as cell-based, human. The conditions noted are these: for IC50: TNBC cell line, CCK-8, 72 h, 0.156 to 40 μM; for inhibition at 5 µg/mL: SUM159. As to the method:
as §1

In a further assay the test system is BT-20. Kind of assay: Cell viability assay (CCK-8), BT-20. The assay is classed as cell-based. The conditions noted are these: Homo sapiens, TNBC cell line, CCK-8, 72 h, 0.156 to 40 μM. On the procedure:
as §2

A further assay deals with MCF-7. In words: Cell viability assay (CCK-8), MCF-7. The class given is cell-based, human. Particulars: Homo sapiens; for IC50: MCF7, 72 h, non-TNBC breast cancer cell line, CCK-8, 72 h; for inhibition at 5 µg/mL: MCF7. As to the method:
as §1

In another assay the test system is TNBC cell lines. Kind of assay: Cell viability assay, different TNBC cell lines. The assay is classed as cell-based, human. Particulars: both TNBC cell lines (MDA-MB-231, SUM-159). As to the method:
as §2

A further assay has as its system MCF-10A. In words: Cell viability assay (CCK-8), MCF-10A. Particulars: Homo sapiens, MCF-10A; normal mammary epithelial cell line; CCK-8, 72 h. The assay is classed as cell-based, human. As to the method: as §2
A further assay has as its system MDA-MB-436. Kind of assay: Cell viability assay, MDA-MB-436. The conditions noted are these: Homo sapiens, TNBC cell line. The assay is classed as cell-based. On the procedure:
In addition to three TNBC cell lines (MDA-MB-231, MDA-MB-436, and SUM-159) and the breast cancer cell line MCF-7, we employed the normal mammary epithelial cell line MCF-10A, which was used for testing the compounds for their effects on normal breast cells (Table 6).
as §2

`CCc1ccc(S(=O)(=O)Nc2cc(SCC(=O)O)c(O)c3ccccc23)cc1` [Compound 2-1]: the IC50 in the assay with MDA-MB-231 (Homo sapiens, MDA-MB-231, 72 h) was found to be 4.36 µM; in the assay on MDA-MB-453, 3.19 µM; in the assay with SUM-159 (Homo sapiens, SUM159, 72 h) it was 30.8 µM; in the assay on BT-20 it was 13.3 µM; with MCF-7, 14 µM.
For `CC(=O)Oc1c(SCC(=O)O)cc(NS(=O)(=O)c2ccc(F)cc2)c2ccccc12` [Compound 2-3], in that order: 7.99 µM, 8.59 µM, greater than 40 µM, greater than 40 µM and greater than 40 µM.
As to `COc1ccc(S(=O)(=O)Nc2cc3c(C(=O)O)c(C)oc3c3ccccc23)cc1` [Compound 2-5-COOH], the IC50 is greater than 20 µM with MDA-MB-231 (Homo sapiens, MDA-MB-231, 72 h); roughly 24 µM with MDA-MB-231; greater than 20 µM with SUM-159 (Homo sapiens, SUM159, 72 h); 24.2 µM in the assay with SUM-159. For the same compound, in the assay with TNBC cell lines, the “fold reduced inhibitory activity compared to the ester compound (2-5)” value is “approximately 10 fold”.
For the compound `Cc1ccc(S(=O)(=O)Nc2cc(SCC(=O)O)c(O)c3ccccc23)cc1` [Compound 2-6], the IC50 is 4.97 µM in the assay with MDA-MB-231 (Homo sapiens, MDA-MB-231, 72 h); 3.36 µM in the assay with MDA-MB-453; 19.2 µM in the assay on SUM-159 (Homo sapiens, SUM159, 72 h); 25 µM with BT-20; greater than 40 µM in the assay with MCF-7.
As to `CC(C)c1ccc(S(=O)(=O)Nc2cc(SCC(=O)O)c(O)c3ccccc23)cc1` [Compound 2-7], the IC50 is 3.95 µM in the assay with MDA-MB-231 (Homo sapiens, MDA-MB-231, 72 h); 3.65 µM with MDA-MB-453; greater than 40 µM in the assay with SUM-159 (Homo sapiens, SUM159, 72 h); greater than 40 µM in the assay on BT-20; greater than 40 µM in the assay on MCF-7.
`CCCCOC(=O)c1c(C)oc2c1cc(NS(=O)(=O)c1ccc(OC)cc1)c1ccccc12` [Compound 3-3]: the inhibition at 5 µg/mL was 51.1% in the assay with MDA-MB-231 (Homo sapiens), 42.1% with SUM-159 (Homo sapiens) and 29.7% in the assay on MCF-7. For the same compound, the IC50 in the assay on MDA-MB-231 (Homo sapiens, MDA-MB-231, 72 h) was 3.25 µM; with SUM-159 (Homo sapiens, SUM159, 72 h) it was 8.66 µM; in the assay with MCF-10A, greater than 40 µM; in the assay with MDA-MB-436 it was 3.36 µM.
As for `CCOc1ccc(S(=O)(=O)Nc2cc3c(C(=O)OC)c(C)oc3c3ccccc23)cc1` [Compound 3-9], the inhibition at 5 µg/mL turned out to be 63% in the assay on MDA-MB-231 (Homo sapiens), 60.8% in the assay with SUM-159 (Homo sapiens) and 24.3% in the assay on MCF-7. Moreover, the IC50 with MDA-MB-231 (Homo sapiens, MDA-MB-231, 72 h) is 2.68 µM; in the assay on SUM-159 (Homo sapiens, SUM159, 72 h), 2.66 µM; with MCF-10A, greater than 40 µM; in the assay with MDA-MB-436, 2.08 µM.
For `COC(=O)c1c(C(C)(C)C)oc2c1cc(NS(=O)(=O)c1ccc(OC)cc1)c1ccccc12` [Compound 3-12], the inhibition at 5 µg/mL is 71.4% in the assay with MDA-MB-231 (Homo sapiens), 90.4% with SUM-159 (Homo sapiens) and 76.3% in the assay with MCF-7. The IC50 was 11.9 µM in the assay on MDA-MB-231 (Homo sapiens, MDA-MB-231, 72 h); 11.5 µM in the assay on SUM-159 (Homo sapiens, SUM159, 72 h); greater than 40 µM in the assay with MCF-10A; 7.13 µM with MDA-MB-436.
On to `CCOc1ccc(S(=O)(=O)Nc2cc3c(C(C)=O)c(C)oc3c3ccccc23)cc1` [Compound 3-17], for which the figures for the inhibition at 5 µg/mL in the assay on MDA-MB-231 (Homo sapiens), in the assay with SUM-159 (Homo sapiens) and with MCF-7 were 68.6%, 61% and 40.5%, respectively. The IC50 is 1.77 µM with MDA-MB-231 (Homo sapiens, MDA-MB-231, 72 h); 1.94 µM in the assay with SUM-159 (Homo sapiens, SUM159, 72 h); 0.66 µM with MCF-10A; roughly 0.01 µM with MDA-MB-436.
With `CCOC(=O)c1c(C)oc2c1cc(NS(=O)(=O)c1ccc(OCC)cc1)c1ccccc12` [Compound 3-37], the inhibition at 5 µg/mL in the assay on MDA-MB-231 (Homo sapiens) stood at 59.7%; in the assay with SUM-159 (Homo sapiens), 66.8%; in the assay on MCF-7, 42.5%. Besides, the half-maximal inhibitory concentration (IC50) with MDA-MB-231 (Homo sapiens, MDA-MB-231, 72 h) is 5.49 µM; with SUM-159 (Homo sapiens, SUM159, 72 h) it was 4.09 µM; with MCF-10A, greater than 40 µM; with MDA-MB-436, 1.41 µM.
With `COc1ccc(S(=O)(=O)Nc2cc(SCC(=O)O)c(O)c3ccccc23)cc1` [Compound C10], the IC50 in the assay on MDA-MB-453 came out at 2.3 µM; in the assay with BT-20 it was 10.6 µM.
With `COc1ccc(-c2oc3c(CCC(C)(C)O)c(O)cc(O)c3c(=O)c2O)cc1` [IC-163, reference compound], the IC50 with MDA-MB-231 (Homo sapiens, MDA-MB-231, 72 h) was greater than 40 µM; with MDA-MB-453, greater than 40 µM; in the assay with SUM-159 (Homo sapiens, SUM159, 72 h), greater than 40 µM; in the assay on BT-20, greater than 40 µM; in the assay on MCF-7 it was greater than 40 µM.

One may read the IC50 as the point on the concentration scale where inhibition reaches its midpoint. Read a low IC50 as greater potency. As usually defined, the inhibition is the percentage by which the read-out fell short of the control. A high value points to strong suppression.
